This note sets out measurements from patent publication US9822130B2, “Triazolo-pyrazinyl derivatives useful as soluble guanylate cyclase activators” (Merck Sharp & Dohme Corp., priority 2014, dated 2017).

The first test has as its target T1, sGC α1/β1 heterodimer stably expressed in CHO-K1 cell line (CHO-K1/sGC) (Homo sapiens, UniProt Q02108+Q02153).
T1 construct: expressed in transfected cells
T1 sequence (Q02108 1-690): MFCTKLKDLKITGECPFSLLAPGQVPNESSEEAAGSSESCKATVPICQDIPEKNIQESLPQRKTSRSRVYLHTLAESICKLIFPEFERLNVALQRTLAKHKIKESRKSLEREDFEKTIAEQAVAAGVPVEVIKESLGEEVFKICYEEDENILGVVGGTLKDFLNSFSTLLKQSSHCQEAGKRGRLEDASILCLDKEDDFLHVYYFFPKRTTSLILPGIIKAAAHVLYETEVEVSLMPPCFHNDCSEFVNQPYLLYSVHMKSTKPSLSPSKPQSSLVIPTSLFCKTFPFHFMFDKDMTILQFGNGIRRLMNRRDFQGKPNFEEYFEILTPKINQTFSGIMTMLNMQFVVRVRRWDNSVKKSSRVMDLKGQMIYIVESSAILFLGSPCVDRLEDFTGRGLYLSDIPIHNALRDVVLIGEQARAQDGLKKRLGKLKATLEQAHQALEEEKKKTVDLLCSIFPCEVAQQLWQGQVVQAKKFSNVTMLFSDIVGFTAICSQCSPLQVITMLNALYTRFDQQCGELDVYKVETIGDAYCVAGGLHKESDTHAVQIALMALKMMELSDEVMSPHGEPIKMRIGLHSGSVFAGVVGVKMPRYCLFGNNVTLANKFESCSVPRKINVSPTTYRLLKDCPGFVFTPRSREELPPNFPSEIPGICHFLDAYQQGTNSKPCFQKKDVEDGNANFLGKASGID
T1 sequence (Q02153 1-619): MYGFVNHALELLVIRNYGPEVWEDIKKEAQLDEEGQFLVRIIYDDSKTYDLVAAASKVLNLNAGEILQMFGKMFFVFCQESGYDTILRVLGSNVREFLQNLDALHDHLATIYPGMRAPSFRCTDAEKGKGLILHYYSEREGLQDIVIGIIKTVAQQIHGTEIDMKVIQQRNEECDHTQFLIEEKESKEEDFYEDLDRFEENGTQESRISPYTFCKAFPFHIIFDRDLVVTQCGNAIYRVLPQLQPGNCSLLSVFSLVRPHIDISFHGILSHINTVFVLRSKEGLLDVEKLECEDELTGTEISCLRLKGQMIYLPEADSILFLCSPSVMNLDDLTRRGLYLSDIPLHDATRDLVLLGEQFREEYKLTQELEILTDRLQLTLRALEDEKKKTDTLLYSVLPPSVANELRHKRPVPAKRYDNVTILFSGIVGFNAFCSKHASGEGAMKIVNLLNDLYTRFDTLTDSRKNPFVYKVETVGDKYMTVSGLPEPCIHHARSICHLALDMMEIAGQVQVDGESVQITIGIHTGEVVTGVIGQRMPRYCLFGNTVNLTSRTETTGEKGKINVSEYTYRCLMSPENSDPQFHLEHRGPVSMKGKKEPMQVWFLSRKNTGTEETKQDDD
Kind of test: Cell-based sGC Functional Assay (CASA Assay), cGMP generation. To be noted: CHO-K1/sGC cells, 1 hr at 37° C., cGMP by HTRF, 4P fit; presence or absence of 1 μM DETA-NO not given; read-out: IP (nM) (inflection point). In short, it runs like this: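 Readout is HTRF cGMP in lysates, normalised to the maximal response of reference sGC activator Compound A (100%), with a 4P fit giving IP and fold induction. Cells were CHO-K1/sGC (human α1/β1) in EBSS buffer with IBMX, incubated 1 hr at 37° C with compound. Run with and without 1 μM DETA-NO; final DMSO 2.5%.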
Turning to `CC1(c2ccc(C#N)cn2)C(=O)Nc2nc(-c3cn4ncnc4c(CCC(F)(F)C(F)(F)F)n3)nc(O)c21` (centres unmarked) [Example 131A, 6-(4-hydroxy-5-methyl-6-oxo-2-(8-(3,3,4,4,4-pentafluorobutyl)-[1,2,4]triazolo[1,5-a]pyrazin-6-yl)-6,7-dihydro-5H-pyrrolo[2,3-d]pyrimidin-5-yl)nicotinonitrile], the EC50 was 1470 nM. On the same count and under the same terms, next, `CC1(c2ccccc2F)C(=O)Nc2nc(-c3cn4ncnc4c(CCC(F)(F)C(F)(F)F)n3)nc(O)c21` (centres unmarked) [Example 170A, 5-(2-Fluorophenyl)-4-hydroxy-5-methyl-2-(8-(3,3,4,4,4-pentafluorobutyl)-[1,2,4]triazolo [1,5-a]pyrazin-6-yl)-5,7-dihydro-6H-pyrrolo [2,3-d]pyrimidin-6-one]: 9.5 nM; `C[C@@]1(c2ccc(F)cc2)C(=O)Nc2nc(-c3cn4ncnc4c(CCC(F)(F)C(F)(F)F)n3)nc(C(N)=O)c21` [Example 177A, 5-(4-Fluorophenyl)-5-methyl-6-oxo-2-(8-(3,3,4,4,4-pentafluorobutyl)-[1,2,4]triazolo[1,5-a]pyrazin-6-yl)-6,7-dihydro-5H-pyrrolo[2,3-d]pyrimidine-4-carboxamide]: 128 nM. For the molecule `CC1(c2ccc(C(F)F)cn2)C(=O)Nc2nc(-c3cn4ncnc4c(CCCC(F)(F)F)n3)nc(N)c21` (centres unmarked) [Example 43B, 4-amino-5-(5-(difluoromethyl)pyridin-2-yl)-5-methyl-2-(8-(4,4,4-trifluorobutyl)-[1,2,4]triazolo[1,5-a]pyrazin-6-yl)-5H-pyrrolo[2,3-d]pyrimidin-6(7H)-one], the EC50 is 45.6 nM.

`CC1(c2ccc(F)cn2)C(=O)Nc2nc(-c3cn4ncnc4c(CCCC(F)(F)F)n3)nc(O)c21` (centres unmarked) [Example 136B, 5-(5-fluoropyridin-2-yl)-4-hydroxy-5-methyl-2-(8-(4,4,4-trifluorobutyl)-[1,2,4]triazolo[1,5-a]pyrazin-6-yl)-5H-pyrrolo[2,3-d]pyrimidin-6(7H)-one]: the EC50 is 514 nM. Regarding `CC(C)Cc1nc(-c2nc(O)c3c(n2)NC(=O)[C@@]3(C)c2ccc(F)cc2)cn2ncnc12` [Example 163A, (S)-5-(4-fluorophenyl)-4-hydroxy-2-(8-isobutyl-[1,2,4]triazolo[1,5-a]pyrazin-6-yl)-5-methyl-5,7-dihydro-6H-pyrrolo[2,3-d]pyrimidin-6-one], the EC50 came out at 1630 nM. On the same count and under the same terms, next, `CC1(c2ccc(Cl)cn2)C(=O)Nc2nc(-c3cn4ncnc4c(CCCC(F)(F)F)n3)nc(O)c21` (centres unmarked) [Example 134A, 5-(5-chloropyridin-2-yl)-4-hydroxy-5-methyl-2-(8-(4,4,4-trifluorobutyl)-[1,2,4]triazolo[1,5-a]pyrazin-6-yl)-5H-pyrrolo[2,3-d]pyrimidin-6(7H)-one]: 857 nM; `CCCCc1nc(-c2nc(N)c3c(n2)NC(=O)C3(C)c2ccc(F)cn2)cn2ncnc12` (centres unmarked) [Example 61B, 4-amino-2-(8-butyl-[1,2,4]triazolo[1,5-d]pyrazin-6-yl)-5-(5-fluoropyridin-2-yl)-5-methyl-5H-pyrrolo[2,3-d]pyrimidin-6(7H)-one]: 9.7 nM. On to `Cc1nc2c(CCC(F)(F)C(F)(F)F)nc(-c3nc(N)c4c(n3)NC(=O)[C@@]4(C)c3ccc(F)cc3)cn2n1` [Example 88B, (S)-4-amino-5-(4-fluorophenyl)-5-methyl-2-(2-methyl-8-(3,3,4,4,4-pentafluorobutyl)-[1,2,4]triazolo[1,5-a]pyrazin-6-yl)-5H-pyrrolo[2,3-d]pyrimidin-6(7H)-one], for which the EC50 worked out at 65 nM. On the same count and under the same terms, the value for `CCCCc1nc(-c2nc(N)c3c(n2)NC(=O)C3(c2nnc(C(F)(F)F)o2)C2CC2)cn2ncnc12` (centres unmarked) [Example 105A, 4-amino-2-(8-butyl-[1,2,4]triazolo[1,5-a]pyrazin-6-yl)-5-cyclopropyl-5-(5-(trifluoromethyl)-1,3,4-oxadiazol-2-yl)-5H-pyrrolo[2,3-d]pyrimidin-6(7H)-one] was 26.7 nM. Still for that read-out and setting: the value for `Cc1nc2c(CCC(F)(F)C(F)(F)F)nc(-c3nc(N)c4c(n3)NC(=O)C4(C)c3ccc(F)cn3)cn2n1` (centres unmarked) [Example 89B, 4-amino-5-(5-fluoropyridin-2-yl)-5-methyl-2-(2-methyl-8-(3,3,4,4,4-pentafluorobutyl)-[1,2,4]triazolo[1,5-a]pyrazin-6-yl)-5H-pyrrolo[2,3-d]pyrimidin-6(7H)-one] was 260 nM; that for `CC1(c2ccc(F)cn2)C(=O)Nc2nc(-c3cn4ncnc4c(CCC(F)(F)F)n3)nc(N)c21` (centres unmarked) [Example 81B, 4-amino-5-(5-fluoropyridin-2-yl)-5-methyl-2-(8-(3,3,3-trifluoropropyl)-[1,2,4]triazolo[1,5-a]pyrazin-6-yl)-5H-pyrrolo[2,3-d]pyrimidin-6(7H)-one] was 698 nM.

Regarding `N#Cc1ccc(C2(C3CC3)C(=O)Nc3nc(-c4cn5ncnc5c(CCCC(F)(F)F)n4)nc(N)c32)nc1` (centres unmarked) [Example 117A, 6-(4-Amino-5-cyclopropyl-6-oxo-2-(8-(4,4,4-trifluorobutyl)-[1,2,4]triazolo[1,5-a]pyrazin-6-yl)-6,7-dihydro-5H-pyrrolo[2,3-d]pyrimidin-5-yl)nicotinonitrile], the EC50 was found to be 49.2 nM.

Take `O=C1Nc2nc(-c3cn4ncnc4c(CCCC(F)(F)F)n3)nc(O)c2C1(c1ccc(F)cc1)C1CC1` (centres unmarked) [Example 139B, 5-cyclopropyl-5-(4-fluorophenyl)-4-hydroxy-2-(8-(4,4,4-trifluorobutyl)-[1,2,4]triazolo[1,5-a]pyrazin-6-yl)-5H-pyrrolo[2,3-d]pyrimidin-6(7H)-one]: the EC50 turned out to be 673 nM. Same read-out and setting: the value for `Nc1nc(-c2cn3ncnc3c(CCC(F)(F)C(F)(F)F)n2)nc2c1C(c1ccc(F)c(F)c1)(C1CC1)C(=O)N2` (centres unmarked) [Example 6A, 4-amino-5-cyclopropyl-5-(3,4-difluorophenyl)-2-(8-(3,3,4,4,4-pentafluorobutyl)-[1,2,4]triazolo[1,5-a]pyrazin-6-yl)-5H-pyrrolo[2,3-d]pyrimidin-6(7H)-one] was 27 nM; that for `O=C1Nc2nc(-c3cn4ncnc4c(CCCC(F)(F)F)n3)nc(O)c2C1(c1ccc(F)cn1)C1CC1` (centres unmarked) [Example 150A, 5-cyclopropyl-5-(5-fluoropyridin-2-yl)-4-hydroxy-2-(8-(4,4,4-trifluorobutyl)-[1,2,4]triazolo[1,5-a]pyrazin-6-yl)-5,7-dihydro-6H-pyrrolo[2,3-d]pyrimidin-6-one] was 1220 nM; that for `CC(F)(F)c1ccc(C2(C)C(=O)Nc3nc(-c4cn5ncnc5c(CCC(F)(F)C(F)(F)F)n4)nc(N)c32)cn1` (racemic) [Example 16B, 4-amino-5-(6-(1,1-difluoroethyl)pyridin-3-yl)-5-methyl-2-(8-(3,3,4,4,4-pentafluorobutyl)-[1,2,4]triazolo[1,5-a]pyrazin-6-yl)-5H-pyrrolo[2,3-d]pyrimidin-6(7H)-one] was 13.1 nM. As for `CC1(c2ccc(F)cn2)C(=O)Nc2nc(-c3cn4ncnc4c(CCC(F)(F)C(F)(F)F)n3)nc(O)c21` (centres unmarked) [Example 122B, 5-(5-fluoropyridin-2-yl)-4-hydroxy-5-methyl-2-(8-(3,3,4,4,4-pentafluorobutyl)-[1,2,4]triazolo[1,5-a]pyrazin-6-yl)-5H-pyrrolo[2,3-d]pyrimidin-6(7H)-one], the EC50 turned out to be 141 nM. Consider `CC1(c2nnc(C3CC3)o2)C(=O)Nc2nc(-c3cn4ncnc4c(CCC(F)(F)C(F)(F)F)n3)nc(N)c21` (centres unmarked) [Example 98B, 4-amino-5-(5-cyclopropyl-1,3,4-oxadiazol-2-yl)-5-methyl-2-(8-(3,3,4,4,4-pentafluorobutyl)-[1,2,4]triazolo[1,5-a]pyrazin-6-yl)-5H-pyrrolo[2,3-d]pyrimidin-6(7H)-one], for which the EC50 stood at 86.1 nM.

Still in this test, the particulars now being: CHO-K1/sGC cells, 1 hr at 37° C., cGMP by HTRF; presence or absence of 1 μM DETA-NO not given; read-out: % Act. (percent activation relative to maximum cGMP production of Compound A = 100%).
Turning to `CC1(c2ccc(F)cn2)C(=O)Nc2nc(-c3cn4ncnc4c(CCC(F)(F)C(F)(F)F)n3)nc(O)c21` (centres unmarked) [Example 122B, 5-(5-fluoropyridin-2-yl)-4-hydroxy-5-methyl-2-(8-(3,3,4,4,4-pentafluorobutyl)-[1,2,4]triazolo[1,5-a]pyrazin-6-yl)-5H-pyrrolo[2,3-d]pyrimidin-6(7H)-one], the Emax is 100%.
